From PMC10590056, “Design and synthesis of cabotegravir derivatives bearing 1,2,3-triazole and evaluation of anti-liver cancer activity” (Frontiers in Pharmacology, 2023)
Values joined by “and” are separate entries in the source; they are usually repeats but may differ in a detail not shown here. Identical values can stand only once. Like-named read-outs stand apart in the source and are kept apart here.

What was measured:
Type in all cases: cell-based
[1] = test system: Bcl-2, Bax, cleaved caspase-9, cleaved caspase-3, cleaved PARP in HepG2 cells; assay: Western blot of mitochondrial apoptotic proteins
Protocol: After being pretreated with either KJ-5 or KJ-12 at concentrations of 2, 4, or 8 μM for 24 h, the cells were harvested and lysed using an ice-cold cell lysis buffer from Beyotime Biotechnology (Shanghai, China). The proteins were mixed with a loading buffer and denatured by heating at 95°C–100°C for 5–10 min. Equal amounts of protein were loaded onto a 10% SDS-PAGE gel along with a molecular weight marker and separated by electrophoresis for 2 h. The separated proteins were transferred onto a PVDF membrane, which was blocked with 5% non-fat milk for non-specific binding sites on the membrane. Then, the membrane was incubated with primary antibodies at 4°C overnight. Following incubation with the primary antibody, the membrane was incubated with HRP-conjugated goat anti-rabbit or goat anti-mouse IgG at 37°C for 1 h. Protein bands were visualized on the PVDF membrane using an ECL hypersensitive chemiluminescence solution and a Bio-Rad gel imaging and analysis system.

HepG2 cells [2] = assay: DAPI staining for cell apoptosis (morphology); details: HepG2, 2, 4, 8 μM, 24 h
Protocol: Apoptotic morphological changes were determined by DAPI staining. HepG2 cells were seeded in a 48-well plate and treated with different concentrations of KJ-5 and KJ-12 (2, 4, and 8 μM) for 24 h. After 24 h, they were then washed with PBS and fixed with 4% paraformaldehyde for 20 min. Subsequently, they were then washed with PBS and treated with DAPI (10 μg/mL) at 37°C for 5 min. After washing with PBS, the cells were resuspended in PBS for the rest of the experiment. A fluorescence microscope was used to observe the apoptotic morphological changes.

KYSE-30 cells = assay: MTT assay for cell proliferation, KYSE-30; parameters: key to Inhibitory rate: inhibition rate = 1 - mean A490 sample/mean A490 control (fraction)
Method in brief: (§1)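 Proliferation read-out is MTT reduction (4 h) after 48 h treatment with KJ-5 or KJ-12 across 0, 1, 2, 4, 8, 16 and 32 μM. Cultures in 10% FBS DMEM, 37 °C, plated at 10^5 cells/mL; A490 of DMSO-dissolved formazan compared with untreated control.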

HepG2 cells [3] = assay: MTT assay for cell proliferation and cytotoxicity, HepG2; parameters: key to Inhibitory rate: inhibition rate = 1 - mean A490 sample/mean A490 control (fraction)
Method in brief: as §1

HeLa cells = assay: MTT assay for cell proliferation, HeLa; parameters: key to Inhibitory rate: inhibition rate = 1 - mean A490 sample/mean A490 control (fraction)
Method in brief: as §1

normal hepatic cells L02 = assay: MTT inhibition rate in normal hepatic cells L02; details: for Average OD / Inhibitory rate / ODtreated/ODcontrol: L02 cells, 3 repeat experiments; for Average OD: average of 5 wells; for Inhibitory rate / ODtreated/ODcontrol: fraction
[4] = HepG2, fraction, per experiment

## COc1c2n(cc(C(=O)Nc3cccc(-c4cn(-c5cc(C(F)(F)F)cc(C(F)(F)F)c5)nn4)c3)c1=O)C[C@H]1OC[C@H](C)N1C2=O [KJ-5]
[1]; HepG2, 2, 4 or 8 μM, 24 h
  Bax levels: increased
  Bax/Bcl-2 ratio: increased
  Bcl-2 protein levels: decreased
[1]; HepG2, vs control
  Expression of cleaved PARP: significantly increased
  Expression of cleaved caspase-3: significantly increased
  Expression of cleaved caspase-9: significantly increased
HepG2 cells [2]
  Apoptotic morphological changes, DAPI staining: cell shrinkage, nuclear condensation, and chromatin fragmentation
KYSE-30 cells; Homo sapiens, KYSE-30, 48 h, MTT, read-out: IC50 KYSE-30
  IC50: 8.51 ± 0.43 µM
KYSE-30 cells; Homo sapiens, KYSE-30, KYSE-30, one of three experiments, unit inferred, read-out: IC50, single experiment, KYSE-30
  IC50: 8.96 µM
KYSE-30 cells; Homo sapiens, preliminary screening, KYSE-30, 16 μM, 48 h, mean±SD, unit inferred, read-out: Inhibition rate (16μM), 48 h, KYSE-30
  inhibition at 16 µM: 65.7 ± 0.91%
KYSE-30 cells; KYSE-30, first of three experiments
  ODtreated/ODcontrol: 0.346
KYSE-30 cells; KYSE-30, given as fraction, first of three experiments
  Inhibitory rate: 0.654
KYSE-30 cells; KYSE-30, given as fraction, second of three experiments
  Inhibitory rate: 0.6669
KYSE-30 cells; KYSE-30, given as fraction, third of three experiments
  Inhibitory rate: 0.6494
KYSE-30 cells; KYSE-30, group 1 (concentration), fraction, single experiments
  Inhibitory rate: 0.1205 and 0.156 and 0.08655
KYSE-30 cells; KYSE-30, group 1 (concentration), single experiments
  ODtreated/ODcontrol: 0.8795 and 0.844 and 0.9135
KYSE-30 cells; KYSE-30, group 2 (concentration), fraction, single experiments
  Inhibitory rate: 0.2874 and 0.3093 and 0.2896
KYSE-30 cells; KYSE-30, group 2 (concentration), single experiments
  ODtreated/ODcontrol: 0.7126 and 0.6907 and 0.7104
KYSE-30 cells; KYSE-30, group 4 (concentration), fraction, single experiments
  Inhibitory rate: 0.3928 and 0.4106 and 0.3851
KYSE-30 cells; KYSE-30, group 4 (concentration), single experiments
  ODtreated/ODcontrol: 0.6072 and 0.5895 and 0.6149
KYSE-30 cells; KYSE-30, group 8 (concentration), fraction, single experiments
  Inhibitory rate: 0.503 and 0.5061 and 0.5028
KYSE-30 cells; KYSE-30, group 8 (concentration), single experiments
  ODtreated/ODcontrol: 0.497 and 0.4939 and 0.4972
KYSE-30 cells; KYSE-30, group 16 (concentration), fraction, single experiments
  Inhibitory rate: 0.6001 and 0.6158 and 0.6257
KYSE-30 cells; KYSE-30, group 16 (concentration), single experiments
  ODtreated/ODcontrol: 0.3999 and 0.3842 and 0.3743
KYSE-30 cells; KYSE-30, group 32 (concentration), fraction, single experiments
  Inhibitory rate: 0.6693 and 0.6807 and 0.6972
KYSE-30 cells; KYSE-30, group 32 (concentration), single experiments
  ODtreated/ODcontrol: 0.3307 and 0.3193 and 0.3028
KYSE-30 cells; KYSE-30, one of three experiments, unit inferred, read-out: IC50, single experiment, KYSE-30
  IC50: 8.11 µM and 8.46 µM
KYSE-30 cells; KYSE-30, second of three experiments
  ODtreated/ODcontrol: 0.3331
KYSE-30 cells; KYSE-30, third of three experiments
  ODtreated/ODcontrol: 0.3506
HepG2 cells [3]; [4]
  Inhibitory rate: 0.8445 and 0.8592 and 0.8525
  ODtreated/ODcontrol: 0.1555 and 0.1408 and 0.1475
HepG2 cells [3]; Homo sapiens, HepG2, liver cancer cells, 4 μM, read-out: Inhibition rate on liver cancer cells
  inhibition at 4 µM: ~50%
HepG2 cells [3]; Homo sapiens, HepG2, 48 h, MTT
  IC50: 4.29 ± 0.1 µM
HepG2 cells [3]; Homo sapiens, preliminary screening, HepG2, 16 μM, 48 h, mean±SD, unit inferred, read-out: Inhibition rate (16μM), 48 h, HepG2
  inhibition at 16 µM: 85.21 ± 0.73%
HeLa cells; Hela, group 1 (concentration), fraction, single experiments
  Inhibitory rate: 0.2915 and 0.2462 and 0.2143
HeLa cells; Hela, group 1 (concentration), single experiments
  ODtreated/ODcontrol: 0.7085 and 0.7538 and 0.7857
HeLa cells; Hela, group 2 (concentration), fraction, single experiments
  Inhibitory rate: 0.3879 and 0.3569 and 0.2882
HeLa cells; Hela, group 2 (concentration), single experiments
  ODtreated/ODcontrol: 0.6121 and 0.6431 and 0.7118
HeLa cells; Hela, group 4 (concentration), fraction, single experiments
  Inhibitory rate: 0.418 and 0.3669 and 0.3302
HeLa cells; Hela, group 4 (concentration), single experiments
  ODtreated/ODcontrol: 0.582 and 0.6331 and 0.6698
HeLa cells; Hela, group 8 (concentration), fraction, single experiments
  Inhibitory rate: 0.5915 and 0.5007 and 0.5011
HeLa cells; Hela, group 8 (concentration), single experiments
  ODtreated/ODcontrol: 0.4085 and 0.4993 and 0.4989
HeLa cells; Hela, group 16 (concentration), fraction, single experiments
  Inhibitory rate: 0.834 and 0.8197 and 0.8242
HeLa cells; Hela, group 16 (concentration), single experiments
  ODtreated/ODcontrol: 0.166 and 0.1803 and 0.1758
HeLa cells; Hela, group 32 (concentration), fraction, single experiments
  Inhibitory rate: 0.8525 and 0.86 and 0.8737
HeLa cells; Hela, group 32 (concentration), single experiments
  ODtreated/ODcontrol: 0.1475 and 0.14 and 0.1263
HeLa cells; Hela, one of three experiments, unit inferred, read-out: IC50, single experiment, Hela
  IC50: 5.87 µM
HeLa cells; Hela, fraction, per experiment
  Inhibitory rate: 0.8059 and 0.7883 and 0.7664
  ODtreated/ODcontrol: 0.1941 and 0.2117 and 0.2336
HeLa cells; Homo sapiens, HeLa, 48 h, HeLa, 48 h, MTT, read-out: IC50 HeLa
  IC50: 5.02 ± 0.94 µM
HeLa cells; Homo sapiens, HeLa, one of three experiments, unit inferred, read-out: IC50, single experiment, Hela
  IC50: 5.16 µM
HeLa cells; Homo sapiens, preliminary screening, Hela, 16 μM, 48 h, mean±SD, unit inferred, read-out: Inhibition rate (16μM), 48 h, Hela
  inhibition at 16 µM: 79.4 ± 1.04%
Normal hepatic cells L02; Homo sapiens, L02, 48 h, L02, 1 μM, 48 h
  inhibition at 1 µM: 9.85 ± 1.6%
Normal hepatic cells L02; Homo sapiens, L02, 48 h, L02, 2 μM, 48 h
  inhibition at 2 µM: 14.9 ± 1.97%
Normal hepatic cells L02; Homo sapiens, L02, 48 h, L02, 4 μM, 48 h
  inhibition at 4 µM: < 20%
Normal hepatic cells L02; Homo sapiens, L02, 48 h, L02, 8 μM, 48 h
  inhibition at 8 µM: 27.1 ± 1.03%
Normal hepatic cells L02; Homo sapiens, L02, 48 h, L02, 16 μM, 48 h
  inhibition at 16 µM: 34.9 ± 2.22%
Normal hepatic cells L02; Group 1
  Average OD: 1.014 and 1.1374 and 1.3158
  Inhibitory rate: 0.1149 and 0.09786 and 0.08274
  ODtreated/ODcontrol: 0.8851 and 0.9021 and 0.9173
Normal hepatic cells L02; Group 2
  Average OD: 0.969 and 1.07 and 1.2316
  Inhibitory rate: 0.1715 and 0.1379 and 0.1371
  ODtreated/ODcontrol: 0.8285 and 0.8621 and 0.8629
Normal hepatic cells L02; Group 4
  Average OD: 0.922 and 1.0172 and 1.2162
  Inhibitory rate: 0.1819 and 0.1797 (2×)
  ODtreated/ODcontrol: 0.8181 and 0.8203 (2×)
Normal hepatic cells L02; Group 8
  Average OD: 0.8272 and 0.9114 and 1.0668
  Inhibitory rate: 0.2824 and 0.2641 and 0.265
  ODtreated/ODcontrol: 0.7176 and 0.7359 and 0.735
Normal hepatic cells L02; Group 16
  Average OD: 0.7216 and 0.9442
  Inhibitory rate: 0.3649 and 0.358 and 0.3234
  ODtreated/ODcontrol: 0.6351 and 0.642 and 0.6766
Normal hepatic cells L02; Group 32
  Average OD: 0.428 and 0.4844 and 0.436
  Inhibitory rate: 0.7067 and 0.6192 and 0.6094
  ODtreated/ODcontrol: 0.2933 and 0.3808 and 0.3906
